In PubChem BioAssay AID330 (DTP/NCI, 2004):
Several values for one entry are separate records, joined by “and”; a condition that tells them apart may be missing. Equal entries are not always repeated. Toxic doses and inconclusive results are not listed. Rule for the calls: active = survival T/C of 150% or more; inactive = T/C below 125% in these data.

Test system: P388 leukemia ip, CD2F1 mice, survival T/C
Assay: NCI In Vivo Anticancer Drug Screen. Data for tumor model P388 Leukemia (intraperitoneal) in CD2F1 (CDF1) mice
Settings: endpoint: median survival time, higher = longer survival
Outline: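 Mice carrying the transplanted tumor received test compound or vehicle. Survival was recorded in each group, and the value is the treated-group measurement divided by that of the vehicle-treated control group.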

[1] = dose: 200.0 mg/kg/injection, schedule: Q04DX003 (ip), vehicle: saline with Tween-80
[2] = dose: 100.0 mg/kg/injection, schedule: Q01DX001 (ip), vehicle: Klucel (hydroxypropylcellulose) (HPC)
[3] = dose: 25.0 mg/kg/injection, schedule: Q04DX002 (ip), vehicle: saline with Tween-80
[4] = dose: 50.0 mg/kg/injection, schedule: Q04DX002 (ip), vehicle: saline with Tween-80
[5] = dose: 100.0 mg/kg/injection, schedule: Q04DX002 (ip), vehicle: saline
[6] = dose: 200.0 mg/kg/injection, schedule: Q04DX002 (ip), vehicle: saline
[7] = dose: 50.0 mg/kg/injection, schedule: Q01DX005 (ip), vehicle: saline with Tween-80
[8] = dose: 100.0 mg/kg/injection, schedule: Q01DX005 (ip), vehicle: saline with Tween-80
[9] = dose: 200.0 mg/kg/injection, schedule: Q01DX005 (ip), vehicle: saline with Tween-80

Measured: T/C

C=C1C(=O)OC2/C=C(/C)CC/C=C(\C(=O)O)CC/C=C(\C)CCC12 (configuration not stated)
inactive: dose: 100.0 mg/kg/injection, schedule: Q04DX003 (ip), vehicle: saline with Tween-80 113 % of control | [1] 110 % of control

C=CCc1ccccc1OC
inactive: dose: 50.0 mg/kg/injection, schedule: Q04DX003 (ip), vehicle: saline 100 % of control | dose: 100.0 mg/kg/injection, schedule: Q04DX003 (ip), vehicle: saline 95 % of control | dose: 200.0 mg/kg/injection, schedule: Q04DX003 (ip), vehicle: saline 100 % of control

O=[N+]([O-])c1ccc(N=Nc2ccc(N(CCCl)CCCl)cc2)c([N+](=O)[O-])c1
inactive: [2] 106 % of control | dose: 200.0 mg/kg/injection, schedule: Q01DX001 (ip), vehicle: Klucel (hydroxypropylcellulose) (HPC) 108 % of control | dose: 400.0 mg/kg/injection, schedule: Q01DX001 (ip), vehicle: Klucel (hydroxypropylcellulose) (HPC) 103 % of control

CC1CCCN2C(=O)CN(N3CCOCC3)CC(=O)N12 (configuration not stated)
inactive: [3] 100 % of control | dose: 25.0 mg/kg/injection, schedule: Q04DX002 (ip), vehicle: saline 95 % of control | [4] 94 % of control | dose: 50.0 mg/kg/injection, schedule: Q04DX002 (ip), vehicle: saline 95 % of control | dose: 100.0 mg/kg/injection, schedule: Q04DX002 (ip), vehicle: saline with Tween-80 99 % of control | [5] 102 % of control | dose: 200.0 mg/kg/injection, schedule: Q04DX002 (ip), vehicle: saline with Tween-80 94 % of control | [6] 94 % of control

Cn1c(C(C)(C)O)cnc1[N+](=O)[O-]
inactive: dose: 50.0 mg/kg/injection, schedule: Q01DX009 (ip), vehicle: saline with Tween-80 103 % of control | dose: 200.0 mg/kg/injection, schedule: Q01DX009 (ip), vehicle: saline with Tween-80 94 % of control

CCOC1CC2(O)c3c(cc4c(c3O)C(=O)c3c(O)ccc(O)c3C4=O)OC2O1 (configuration not stated)
inactive: dose: 100.0 mg/kg/injection, schedule: Q01DX001 (ip), vehicle: saline 103 % of control | dose: 200.0 mg/kg/injection, schedule: Q01DX001 (ip), vehicle: saline 109 % of control | dose: 400.0 mg/kg/injection, schedule: Q01DX001 (ip), vehicle: saline 116 % of control

CN=C(C)c1c(O)n(-c2ccccc2)[nH]c1=O
inactive: dose: 100.0 mg/kg/injection, schedule: Q04DX002 (ip), vehicle: Klucel (hydroxypropylcellulose) (HPC) 96 % of control | dose: 200.0 mg/kg/injection, schedule: Q04DX002 (ip), vehicle: Klucel (hydroxypropylcellulose) (HPC) 102 % of control | dose: 400.0 mg/kg/injection, schedule: Q04DX002 (ip), vehicle: Klucel (hydroxypropylcellulose) (HPC) 90 % of control

NCCCn1[nH]c(=O)c2ccncc2c1=O
inactive: [5] 97 % of control | [6] 97 % of control | dose: 400.0 mg/kg/injection, schedule: Q04DX002 (ip), vehicle: saline 95 % of control

CC(=O)c1ccc(OCc2ccccc2)cc1OCc1ccccc1
inactive: dose: 50.0 mg/kg/injection, schedule: Q01DX009 (ip), vehicle: saline 97 % of control | dose: 100.0 mg/kg/injection, schedule: Q01DX009 (ip), vehicle: saline 100 % of control | dose: 200.0 mg/kg/injection, schedule: Q01DX009 (ip), vehicle: saline 98 % of control

c1ccc2c(c1)Sc1ccccc1N2CCCNC1=NCCO1
inactive: dose: 12.5 mg/kg/injection, schedule: Q04DX003 (ip), vehicle: saline with Tween-80 94 % of control | dose: 25.0 mg/kg/injection, schedule: Q04DX003 (ip), vehicle: saline with Tween-80 96 % of control | dose: 50.0 mg/kg/injection, schedule: Q04DX003 (ip), vehicle: saline with Tween-80 87 % of control | [1] 88 % of control | dose: 400.0 mg/kg/injection, schedule: Q04DX003 (ip), vehicle: saline with Tween-80 90 % of control

CCOC(=O)C1=C(C(=O)c2cccc3ccccc23)C(c2cccc([N+](=O)[O-])c2)C(C(=O)c2cccc3ccccc23)=C(C(=O)OCC)N1
inactive: dose: 15.0 mg/kg/injection, schedule: Q01DX005 (ip), vehicle: Klucel (hydroxypropylcellulose) (HPC) 97 % of control | dose: 30.0 mg/kg/injection, schedule: Q01DX005 (ip), vehicle: Klucel (hydroxypropylcellulose) (HPC) 97 % of control | dose: 60.0 mg/kg/injection, schedule: Q01DX005 (ip), vehicle: Klucel (hydroxypropylcellulose) (HPC) 99 % of control

Cc1ccc2c(c1)C1(C)OC(C=CC1S(=O)c1ccccc1)O2 (configuration not stated)
inactive: dose: 50.0 mg/kg/injection, schedule: Q01DX005 (ip), vehicle: Klucel (hydroxypropylcellulose) (HPC) 102 % of control | dose: 100.0 mg/kg/injection, schedule: Q01DX005 (ip), vehicle: Klucel (hydroxypropylcellulose) (HPC) 101 % of control | dose: 200.0 mg/kg/injection, schedule: Q01DX005 (ip), vehicle: Klucel (hydroxypropylcellulose) (HPC) 113 % of control

CC1(c2cccc[n+]2Cc2ccc(Cl)c(Cl)c2)OCCO1
inactive: dose: 12.5 mg/kg/injection, schedule: Q01DX005 (ip), vehicle: saline 100 % of control | dose: 25.0 mg/kg/injection, schedule: Q01DX005 (ip), vehicle: saline 99 % of control

O=S(=O)(c1cnccc1N1CCN(CCCl)CC1)N1CCCCC1
inactive: dose: 6.25 mg/kg/injection, schedule: Q01DX009 (ip), vehicle: saline 98 % of control and 100 % of control | dose: 12.5 mg/kg/injection, schedule: Q01DX009 (ip), vehicle: saline 100 % of control and 104 % of control and 105 % of control | dose: 25.0 mg/kg/injection, schedule: Q01DX009 (ip), vehicle: saline 100 % of control and 108 % of control and 109 % of control

CC(=O)Nc1ccc(S(=O)(=O)NCCSSCCNS(=O)(=O)c2ccc(NC(C)=O)cc2)cc1
inactive: dose: 50.0 mg/kg/injection, schedule: Q01DX009 (ip), vehicle: Klucel (hydroxypropylcellulose) (HPC) 102 % of control | dose: 100.0 mg/kg/injection, schedule: Q01DX009 (ip), vehicle: Klucel (hydroxypropylcellulose) (HPC) 94 % of control | dose: 200.0 mg/kg/injection, schedule: Q01DX009 (ip), vehicle: Klucel (hydroxypropylcellulose) (HPC) 91 % of control

C=C1C(=O)O[C@H]2C=C(C)[C@H]3[C@@H](OC(C)=O)C[C@@](C)(O)[C@@H]3C[C@H]12
inactive: dose: 12.5 mg/kg/injection, schedule: Q01DX009 (ip), vehicle: suspension in saline 106 % of control | dose: 25.0 mg/kg/injection, schedule: Q01DX009 (ip), vehicle: suspension in saline 106 % of control | dose: 50.0 mg/kg/injection, schedule: Q01DX009 (ip), vehicle: suspension in saline 103 % of control | dose: 100.0 mg/kg/injection, schedule: Q01DX009 (ip), vehicle: suspension in saline 114 % of control

COc1ccc2nc3cc(Cl)ccc3c(NCC3CCCN4CCCCC34)c2c1 (configuration not stated)
inactive: dose: 12.5 mg/kg/injection, schedule: Q01DX005 (ip), vehicle: distilled water + Tween-80 98 % of control | dose: 25.0 mg/kg/injection, schedule: Q01DX005 (ip), vehicle: distilled water + Tween-80 103 % of control | dose: 50.0 mg/kg/injection, schedule: Q01DX005 (ip), vehicle: distilled water + Tween-80 104 % of control | dose: 100.0 mg/kg/injection, schedule: Q01DX005 (ip), vehicle: distilled water + Tween-80 113 % of control

O=C1CSC(c2cccc(Cl)c2)N1CCN1C(=O)CSC1c1cccc(Cl)c1 (configuration not stated)
inactive: [7] 100 % of control | [8] 93 % of control | [9] 86 % of control

Nc1cc(-c2ccc(Br)cc2)nn1-c1nnc(-c2ccccc2)c(-c2ccccc2)n1
inactive: [7] 101 % of control | [8] 93 % of control | [9] 92 % of control

NC(=S)c1ccc(C2Nc3ccc(Cl)cc3N2)cc1 (configuration not stated)
inactive: dose: 12.5 mg/kg/injection, schedule: Q04DX002 (ip), vehicle: saline with Tween-80 106 % of control | [3] 94 % of control | [4] 90 % of control

FC(F)(F)COP(c1ccccc1)c1ccccc1
inactive: [7] 113 % of control | [8] 111 % of control | [9] 114 % of control

C=CCCCC(=O)CCCCO
inactive: dose: 50.0 mg/kg/injection, schedule: Q01DX009 (ip), vehicle: other 95 % of control | dose: 100.0 mg/kg/injection, schedule: Q01DX009 (ip), vehicle: other 107 % of control | dose: 200.0 mg/kg/injection, schedule: Q01DX009 (ip), vehicle: other 101 % of control

C[Si](C)(C)Cn1ccc(=O)[nH]c1=O
inactive: dose: 60.0 mg/kg/injection, schedule: Q01DX005 (ip), vehicle: Klucel + Tween-80 94 % of control | dose: 120.0 mg/kg/injection, schedule: Q01DX005 (ip), vehicle: Klucel + Tween-80 92 % of control | dose: 240.0 mg/kg/injection, schedule: Q01DX005 (ip), vehicle: Klucel + Tween-80 98 % of control

N#CC(CCCC(C#N)c1ccccc1)c1ccccc1 (configuration not stated)
inactive: dose: 50.0 mg/kg/injection, schedule: Q01DX001 (ip), vehicle: Klucel (hydroxypropylcellulose) (HPC) 106 % of control | [2] 108 % of control
